Laboratory results taken from patent publication US20240400547A1, “2,6-PIPERIDINEDIONE COMPOUND AND APPLICATION THEREOF” (MEDSHINE DISCOVERY INC., priority 2021, published 2024).
Structures can show the parent of a compound that is named as a salt.

Legend:
[1] = Pharmacokinetic evaluation in mice; format: in vivo, C57BL/6N or CD-1 male mice; conditions: intragastric administration 10 mg/kg, experimental operation A, fasted overnight
From the text: In this study, C57BL/6N or CD-1 male mice were selected as test animals, and LC/MS/MS method was used to quantify plasma concentrations of the test compound intravenously injected or gavage to mice at different time points, so as to evaluate the pharmacokinetic profile of the compounds of the present disclosure in mice.
C57BL/6N mice (male, 20 to 30 g, 7 to 10 weeks old, Beijing VitalRiver) or CD-1 mice (male, 20 to 35 g, 7 to 10 weeks old, Beijing VitalRiver).
• The test compounds, either as clear or suspension solutions, were administered intravenously through the tail vein to C57BL/6N mice or CD-1 mice (either fasted overnight or fed) (vehicle: 10% DMSO/10% solutol/80% H2O or 5% DMSO/10% solutol/85% H2O), or intragastrically administered to C57BL/6N mice or CD-1 mice (either fasted overnight or fed). For intravenous injection, blood 50 μL was collected via the cheek vein puncture at 0 h (pre-administration), 0.083, 0.25, 0.5, 1, 2, 4, 6, 8, and 24 h after administration, and placed in an anticoagulant tube added with heparin sodium. The mixture was thoroughly vortexed and mixed, and centrifuged at 6000 g for 3 minutes at 2-8° C. For oral administration, blood was collected via the cheek vein puncture at 0 h (pre-administration), 0.083, 0.25, 0.5, 1, 2, 4, 6, 8, and 24 h after administration, and placed in an anticoagulant tube added with heparin sodium. The mixture was thoroughly vortexed and mixed, and centrifuged at 6000 g for 3 minutes at 2-8° C. Plasma concentrations were determined by LC-MS/MS method, and relevant pharmacokinetic parameters were calculated using Phoenix WinNonlin8.2.0 pharmacokinetic software with non-compartmental model linear-log trapezoidal method.
• The test compounds, as clear solutions, were administered intravenously through the tail vein to CD-1 mice (fasted overnight) (vehicle: 10% DMSO/10% solutol/80% H2O or 5% DMSO/10% solutol/85% H2O), or intragastrically administered to CD-1 mice (fasted overnight). For intravenous injection, blood was collected via the saphenous vein puncture at 0 h (pre-administration), 0.083, 0.25, 0.5, 1, 2, 4, 8, and 24 h after administration, and placed in a EDTA-K2 anticoagulant tube. The mixture was thoroughly vortexed and mixed, and centrifuged at 3200 g for 10 minutes at 4° C. to obtain plasma. For oral administration, blood was collected via the saphenous vein puncture at 0 h (pre-administration), 0.083, 0.25, 0.5, 1, 2, 4, 8, and 24 h after administration, and placed in a EDTA-K2 anticoagulant tube. The mixture was thoroughly vortexed and mixed, and centrifuged at 3200 g for 10 minutes at 4° C. to obtain plasma. Plasma concentrations were determined by LC-MS/MS method, and relevant pharmacokinetic parameters were calculated using Phoenix WinNonlin 6.3 pharmacokinetic software with non-compartmental model linear-log trapezoidal method.

IRAK4 = molecular target: T1, IRAK4 (Homo sapiens, UniProt Q9NWZ3); assay: Target protein degradation in K562 IRAK4-HiBiT cells (Nano-Glo HiBiT); format: cell-based; conditions: 16 to 18 hours; for Dmax: read-out: Maximum degradation rate
T1 construct: expressed in transfected cells; host or cells: K562 IRAK4-HiBiT cells
T1 sequence (Q9NWZ3 1-460): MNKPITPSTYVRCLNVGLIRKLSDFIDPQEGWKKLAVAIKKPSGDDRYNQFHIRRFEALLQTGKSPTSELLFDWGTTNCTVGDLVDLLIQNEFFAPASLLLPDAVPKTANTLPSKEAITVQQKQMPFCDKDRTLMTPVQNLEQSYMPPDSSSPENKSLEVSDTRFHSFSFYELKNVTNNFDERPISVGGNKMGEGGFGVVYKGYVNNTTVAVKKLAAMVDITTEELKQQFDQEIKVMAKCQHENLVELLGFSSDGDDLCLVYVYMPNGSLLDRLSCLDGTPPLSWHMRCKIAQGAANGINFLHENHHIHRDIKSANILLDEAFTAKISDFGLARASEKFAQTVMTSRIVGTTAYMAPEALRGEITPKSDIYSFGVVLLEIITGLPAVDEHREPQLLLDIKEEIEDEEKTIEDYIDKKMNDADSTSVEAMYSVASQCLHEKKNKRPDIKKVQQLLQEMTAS
Description: Experimental objective: The experiment aims to evaluate the degradation effect of the test compounds on the target protein IRAK4 in K562 IRAK4-HiBiT cells.
• Cells: K562 IRAK4-HiBiT cells • Culture medium: RPMI 1640+10% fetal bovine serum+2 mM glutamine+1 mM sodium pyruvate+penicillin/streptomycin. • Positive control: 1000 nM; negative control: 0.1% DMSO.
• (1). The powder of the compound to be tested was dissolved in DMSO to a storage concentration of 10 mM. A total of 9 μL of the 10 mM of the compound to be tested was manually pipetted into the 1st and 13th columns of the LDV plate using a pipettor; • (2). A volume of 6 μL of DMSO was added to columns 2-12 and 14-24 using a Multidrop Combi; • (3). A 3-fold dilution of the test compounds (3 μL+6 μL) was performed using Bravo, for columns 1-11 and 13-23; • (4). According to the plate layout, 25 nL of compound solution (columns 1-24 of the LDV plate) was transferred to the experimental plate using Echo; • (5) 25 nL of the 1 mM positive control solution was transferred to the assay plate as a 100% degradation control (i.e. LC, HPE), and 25 nL of DMSO was transferred to the assay plate as a 0% control (i.e. HC, ZPE).
• (1) The culture medium was discarded, and the cells were washed once with DPBS, digested with trypsin, counted, and prepared into a cell suspension of […]. • (2) Using the MultiDrop Combi at a medium speed, 25 μL/well of the cell suspension was added to the experimental plate containing the test compounds; • (3) The experimental plate containing cells was returned to the incubator and cultured for 16 to 18 hours at 37° C. and 5% CO2.
• (1). Using the MultiDrop Combi at a high speed, 25 μL/well of the assay reagent (NanoGlo lytic solution+substrate+LgBit protein) was added to the assay plate, followed by shaking for 10 minutes; • (2) The plate was centrifuged at 2000 rpm for 1 minute to remove any bubbles; • (3) Readings were obtained by using an Envision, US Luminescence reader.
To calculate the degradation rate (DR) of the test compounds, the following formula is used: IR (%)=(RLU vehicle control−RLU compound)/(RLU vehicle control−RLU positive control)×100%. The solvent control refers to the blank control. The degradation rates of compounds at different concentrations were calculated in Excel, and then XLFit software was used to plot inhibition curves and calculate relevant parameters, including minimum degradation rate, maximum degradation rate, and DC50.

IKZF1 = molecular target: T2, IKZF1 (Homo sapiens, UniProt Q13422+Q96SW2); assay: In Cell Western of IKZF1 protein expression level in MM.1S cells; format: cell-based; conditions: IKZF1, MM.1S cells, 24 hours; for Dmax: MM1.S, read-out: Maximum degradation rate Dmax
T2 construct: host or cells: MM.1S cells
Description: Experimental objective: The experiment aims to assess the degradation effect of the test compounds on IKZF1 and 1KZF3 proteins in MM.1S cells by evaluating the impact of the test compounds on the expression levels of IKZF1 and IZKZF3 proteins in MM.1S cells.
• Cell lines: MMN.1 S cell (sourced from ATCC; Cat. No CRL-2974) • Negative control: 0.100 DMSO.
• 1) Log phase MM.1 S cells were plated in a 96-well plate at 1.2×10^5 cells per well and cultured overnight; • 2) The next day, compounds were added with a starting concentration of 300 nM, diluted threefold across three replicate wells for 10 concentration gradients (including DMSO), and the cells were incubated for 24 hours in an incubator; • 3) The cells were centrifuged, and the supernatant was carefully removed. 150 μL of 4% paraformaldehyde fixative was added along the wall of the wells, avoiding contact with the bottom cells, and the cells were incubated at room temperature for 20 minutes; • 4) Lysis buffer was prepared by mixing 0.5 mL of 10% Triton X-100 with 49.5 mL of PBS until homogenous; • 5) 200 μL of lysis buffer was added along the well walls, again avoiding the bottom cells, and incubated on a shaker at room temperature for 5 minutes; • 6) The wells were washed four times; • 7) 150 μL of Licor […] Blocking Buffer was added along the well walls, avoiding the bottom cells, and the cells were incubated on a shaker at room temperature for 1.5 hours; • 8) Ikaros (D6N9Y) Rabbit mAb, Aiolos (D1C1E) Rabbit mAb and GAPDH mouse mAb (proteintech, 60004-1-Ig) were diluted at a 1:100 ratio using antibody dilution buffer; • 9) 50 μL of mixed antibody was added to each well with three replicate wells, and the cells were incubated overnight on a shaker at 4° C.; • 10) PBST (PBS with 0.1% Tween 20) was prepared; • 11) The primary antibodies were removed, and 200 μL of PBST was added along the well walls, avoiding the bottom cells, and the cells were incubated on a shaker at room temperature for 5 minutes; • 12) The wells were washed four times; • 13) Secondary antibody dilution buffer was prepared by adding Tween 20 to Licor […] Blocking Buffer to a final concentration of 0.2%; • 14) Fluorescent secondary antibodies were diluted in the dark at a 1:800 ratio. To 400 μL of secondary antibody dilution solution, 0.5 μL of each IRDye 800CW and IRDye 680CW (corresponding to the primary antibodies) was added. • 15) 50 μL of the diluted fluorescent secondary antibodies was added to each well and the cells were incubated on a shaker at room temperature in the dark for 60 minutes; • 16) The secondary antibodies were removed, and 200 μL of PBST was added along the well walls, avoiding the bottom cells, and the cells were incubated on a shaker at room temperature in the dark for 5 minutes; • 17) The wells were washed four times; immediately after washing, the Odyssey Gel Imaging System was used for detection at dual wavelengths of 700 nm and 800 nm.
Using GraphPad Prism 6 software, inhibition rate data was entered to fit the curve and calculate the DC50 value.

T2 sequence (Q13422 whole entry): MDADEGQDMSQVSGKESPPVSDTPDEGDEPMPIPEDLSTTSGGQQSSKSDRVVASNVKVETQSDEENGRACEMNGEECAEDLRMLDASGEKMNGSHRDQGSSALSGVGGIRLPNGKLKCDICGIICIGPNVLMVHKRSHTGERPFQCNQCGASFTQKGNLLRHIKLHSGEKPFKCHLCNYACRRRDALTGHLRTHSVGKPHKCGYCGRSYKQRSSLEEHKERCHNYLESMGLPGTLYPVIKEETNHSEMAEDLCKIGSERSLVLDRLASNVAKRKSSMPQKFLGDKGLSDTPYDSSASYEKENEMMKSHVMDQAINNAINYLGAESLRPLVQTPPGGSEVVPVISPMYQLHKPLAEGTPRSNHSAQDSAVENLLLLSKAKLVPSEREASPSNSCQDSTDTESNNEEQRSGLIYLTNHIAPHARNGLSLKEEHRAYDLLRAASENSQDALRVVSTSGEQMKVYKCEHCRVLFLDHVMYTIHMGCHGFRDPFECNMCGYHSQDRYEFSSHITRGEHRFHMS
T2 sequence (Q96SW2 whole entry): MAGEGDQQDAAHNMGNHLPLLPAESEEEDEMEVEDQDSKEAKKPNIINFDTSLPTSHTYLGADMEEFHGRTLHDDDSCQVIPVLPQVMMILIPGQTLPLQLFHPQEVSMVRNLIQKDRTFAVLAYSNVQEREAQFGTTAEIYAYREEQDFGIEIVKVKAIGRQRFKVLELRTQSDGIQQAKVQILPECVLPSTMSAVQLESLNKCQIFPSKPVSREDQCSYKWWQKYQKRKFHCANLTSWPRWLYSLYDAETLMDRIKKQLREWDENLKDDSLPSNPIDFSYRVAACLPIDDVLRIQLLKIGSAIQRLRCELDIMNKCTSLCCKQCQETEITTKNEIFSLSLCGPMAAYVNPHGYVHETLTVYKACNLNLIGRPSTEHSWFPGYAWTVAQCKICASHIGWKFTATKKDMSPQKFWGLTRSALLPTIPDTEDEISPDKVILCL
T2 sequence (Q16531 whole entry partner): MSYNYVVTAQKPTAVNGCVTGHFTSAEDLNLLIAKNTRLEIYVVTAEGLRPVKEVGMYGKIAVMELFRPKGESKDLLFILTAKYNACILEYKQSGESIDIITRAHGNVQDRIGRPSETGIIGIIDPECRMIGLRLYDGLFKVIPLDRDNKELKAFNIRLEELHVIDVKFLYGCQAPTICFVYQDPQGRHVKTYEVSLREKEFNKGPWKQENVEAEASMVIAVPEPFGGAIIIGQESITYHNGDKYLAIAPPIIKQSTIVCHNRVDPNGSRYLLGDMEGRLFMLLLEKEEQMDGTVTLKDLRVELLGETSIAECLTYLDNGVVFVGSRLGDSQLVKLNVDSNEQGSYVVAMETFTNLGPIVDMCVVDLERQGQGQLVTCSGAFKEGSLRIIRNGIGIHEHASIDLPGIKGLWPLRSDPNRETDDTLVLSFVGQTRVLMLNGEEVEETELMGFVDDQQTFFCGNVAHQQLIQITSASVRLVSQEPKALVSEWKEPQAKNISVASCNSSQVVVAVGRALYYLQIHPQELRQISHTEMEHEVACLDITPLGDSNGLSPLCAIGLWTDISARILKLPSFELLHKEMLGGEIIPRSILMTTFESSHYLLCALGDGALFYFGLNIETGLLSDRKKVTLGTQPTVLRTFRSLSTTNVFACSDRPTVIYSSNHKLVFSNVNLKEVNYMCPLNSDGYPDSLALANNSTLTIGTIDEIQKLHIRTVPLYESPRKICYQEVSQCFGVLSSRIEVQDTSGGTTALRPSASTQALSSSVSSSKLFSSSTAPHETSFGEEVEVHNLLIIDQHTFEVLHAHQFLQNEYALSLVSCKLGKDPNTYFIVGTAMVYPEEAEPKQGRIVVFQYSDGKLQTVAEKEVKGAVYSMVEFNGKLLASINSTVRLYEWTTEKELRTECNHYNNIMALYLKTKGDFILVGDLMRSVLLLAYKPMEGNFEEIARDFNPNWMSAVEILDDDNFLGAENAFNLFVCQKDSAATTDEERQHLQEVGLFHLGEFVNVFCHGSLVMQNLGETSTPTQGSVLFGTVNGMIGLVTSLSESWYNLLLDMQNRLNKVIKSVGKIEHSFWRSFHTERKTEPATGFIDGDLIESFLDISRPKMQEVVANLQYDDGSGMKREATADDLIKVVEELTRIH

SMILES: CC(C)(O)c1cc2nc([C@H]3CC[C@H](CN4CCC(C(F)(F)C(=O)Nc5cccc6c5ccc5onc(C7CCC(=O)NC7=O)c56)CC4)CC3)sc2cc1NC(=O)c1cccc(C(F)(F)F)n1 (some centres unmarked) [Formate of WX019]
- Area under drug-time curve (0-inf) [1]: 5.10 µM·h
- Peak concentration [1]: 0.34 µM
- Time to peak concentration [1]: 3.33 h
- DC50 (IRAK4): 15.1 nM
- Dmax (IRAK4): 92%

SMILES: CC(C)(O)c1cc2nc([C@H]3CC[C@H](CN4CCC(C(F)(F)C(=O)Nc5cccc6c(C7CCC(=O)NC7=O)noc56)CC4)CC3)sc2cc1NC(=O)c1cccc(C(F)(F)F)n1 (some centres unmarked) [Formate of WX023]
- DC50 (IRAK4): 7.16 nM
- Dmax (IRAK4): 114%
- DC50 (IKZF1): 31.3 nM
- Dmax (IKZF1): 57.2%

SMILES: O=C1CCC(c2noc3c(NC(=O)C(F)(F)C4CCN(C[C@H]5CC[C@H](n6cc(NC(=O)c7coc(-c8ccnc(NCC9CC9)c8)n7)c(C(F)F)n6)CC5)CC4)cccc23)C(=O)N1 (some centres unmarked) [Formate of WX024]
- DC50 (IRAK4): 1.75 nM
- Dmax (IRAK4): 117%
- DC50 (IKZF1): 35.2 nM
- Dmax (IKZF1): 60.8%

SMILES: CC(C)(O)c1cc2nc([C@H]3CC[C@H](CN4CCN(CC(=O)Nc5cccc6c(C7CCC(=O)NC7=O)noc56)CC4)CC3)sc2cc1NC(=O)c1cccc(C(F)(F)F)n1 (some centres unmarked) [Formate of WX029]
- DC50 (IRAK4): 4.26 nM
- Dmax (IRAK4): 112%
- DC50 (IKZF1): 38.8 nM
- Dmax (IKZF1): 61.8%

SMILES: O=C1CCC(c2coc3ccc(NC(=O)CN4CCN(C[C@H]5CC[C@H](n6cc(NC(=O)c7coc(-c8ccnc(NCC9CC9)c8)n7)c(C(F)F)n6)CC5)CC4)cc23)C(=O)N1 (some centres unmarked) [Hydrochloride of WX001]
- DC50 (IRAK4): 76.4 nM
- Dmax (IRAK4): 54.3%

SMILES: CN(CCCOCCCc1ccc2c(ccc3occ(C4CCC(=O)NC4=O)c32)c1)C[C@H]1CC[C@H](n2cc(NC(=O)c3coc(-c4ccnc(NCC5CC5)c4)n3)c(C(F)F)n2)CC1 (some centres unmarked) [Hydrochloride of WX008]
- DC50 (IRAK4): 122 nM
- Dmax (IRAK4): 82.2%
- DC50 (IKZF1): 4.66 nM
- Dmax (IKZF1): 81.4%

SMILES: CN(CCCOCCCc1cccc2c1ccc1onc(C3CCC(=O)NC3=O)c12)CC1CCC(n2cc(NC(=O)c3coc(-c4ccnc(NCC5CC5)c4)n3)c(C(F)F)n2)CC1 (centres unmarked) [Hydrochloride of WX013]
- DC50 (IRAK4): 48.7 nM
- Dmax (IRAK4): 101%

SMILES: O=C1CCC(c2noc3ccc4cc(NC(=O)CN5CCN(CC6CCC(n7cc(NC(=O)c8coc(-c9ccnc(NCC%10CC%10)c9)n8)c(C(F)F)n7)CC6)CC5)ccc4c23)C(=O)N1 (centres unmarked) [Hydrochloride of WX015]
- DC50 (IRAK4): 47.1 nM
- Dmax (IRAK4): 100%
- DC50 (IKZF1): 7.7 nM
- Dmax (IKZF1): 81.8%

SMILES: CN(CCCOCCCc1cccc2c1ccc1occ(C3CCC(=O)NC3=O)c12)CC1CCC(n2cc(NC(=O)c3coc(-c4ccnc(NCC5CC5)c4)n3)c(C(F)F)n2)CC1 (centres unmarked) [Trifluoroacetate of WX010]
- DC50 (IRAK4): 50.2 nM
- Dmax (IRAK4): 81.7%

SMILES: O=C1CCC(c2coc3ccc4cc(NC(=O)CN5CCN(C[C@H]6CC[C@H](n7cc(NC(=O)c8coc(-c9ccnc(NCC%10CC%10)c9)n8)c(C(F)F)n7)CC6)CC5)ccc4c23)C(=O)N1 (some centres unmarked) [WX007]
- DC50 (IRAK4): 35.1 nM
- Dmax (IRAK4): 97.4%

SMILES: CC(C)(O)c1cc2nc([C@H]3CC[C@H](CN4CC5(CC(CCNc6ccc7c(ccc8onc(C9CCC(=O)NC9=O)c87)c6)C5)C4)CC3)sc2cc1NC(=O)c1cccc(C(F)(F)F)n1 (some centres unmarked) [WX021]
- DC50 (IKZF1): 2.66 nM
- Dmax (IKZF1): 87.6%
